Measured values as given in the supplement of paper PMC10331698.
± gives the standard deviation of the averaged measurements.

Tests used:
Experiment in all cases: level (log10 ratio to DMSO vehicle control); higher = higher biomarker level / cell amount than vehicle control
[1] = compound: CCN(CCO)S(=O)(=O)C(F)(F)C(F)(F)C(F)(F)C(F)(F)C(F)(F)C(F)(F)C(F)(F)C(F)(F)F [N-Ethyl-N-(2-hydroxyethyl)perfluorooctanesulfonamide]; conditions: in DMSO
Method: (§1)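 BioMAP Diversity Plus panel of 12 human primary cell co-culture systems (3C, 4H, LPS, SAg, BT, BF4T, BE3C, CASM3C, HDF3CGF, KF3CT, MyoF, Mphg). Compounds were added 1 h before stimulation and left for 24 h (MyoF 48 h; BT 72 h for soluble read-outs or 6 d for IgG). Biomarkers were read by ELISA, cytotoxicity by SRB, PBMC viability and proliferation by Alamar Blue. Each well value was divided by the mean of 8 DMSO control wells on the same plate and log10 transformed; duplicate blinded samples were tested at 4 concentrations.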

[2] = compound: FC(F)(F)C(F)(C(F)(F)F)C(F)(F)C(F)(F)CC1CO1 [3-(Perfluoro-3-methylbutyl)-1,2-propenoxide]; conditions: in DMSO
Method: as §1

[3] = compound: FC(F)(F)C(F)(F)C(F)(F)C(F)(F)C(F)(F)CCI [1-Iodo-1H,1H,2H,2H-perfluoroheptane]; conditions: in DMSO
Method: as §1

[4] = compound: NCC(F)(F)C(F)(F)C(F)(F)C(F)(F)C(F)(F)C(F)(F)C(F)(F)F [1H,1H-Perfluorooctylamine]; conditions: in DMSO
Method: as §1

Perfluorobutanoic acid = compound: O=C(O)C(F)(F)C(F)(F)C(F)(F)F [Perfluorobutanoic acid]; conditions: in DMSO
Method: as §1

[5] = compound: O=C(O)C(F)(F)OC(F)(F)C(F)(F)OC(F)(F)F [Perfluoro-3,6-dioxaheptanoic acid]; conditions: in DMSO
Method: as §1

[6] = compound: OCCC(F)(F)C(F)(F)C(F)(F)C(F)(F)C(F)(F)C(F)(F)F [6:2 Fluorotelomer alcohol]; conditions: in DMSO
Method: as §1

[7] = compound: OCCCC(F)(F)C(F)(F)C(F)(F)C(F)(F)C(F)(F)C(F)(F)C(F)(F)F [7:3 Fluorotelomer alcohol]; conditions: 6700 nM; in DMSO
Method: as §1

Test System	level (log10) ([1]; 6700 nM)	level (log10) ([1]; 20000 nM)	level (log10) ([2]; 6700 nM)	level (log10) ([2]; 20000 nM)	level (log10) ([3]; 6700 nM)	level (log10) ([3]; 20000 nM)	level (log10) ([3]; 60000 nM)	level (log10) ([4]; 6700 nM)	level (log10) ([4]; 20000 nM)	level (log10) ([4]; 60000 nM)	level (log10) (Perfluorobutanoic acid; 6700 nM)	level (log10) (Perfluorobutanoic acid; 20000 nM)	level (log10) (Perfluorobutanoic acid; 60000 nM)	level (log10) ([5]; 6700 nM)	level (log10) ([5]; 20000 nM)	level (log10) ([5]; 60000 nM)	level (log10) ([6]; 6700 nM)	level (log10) ([6]; 20000 nM)	level (log10) [7]
lMphg:CCL3/MIP-1alpha	0.0325 ± 0.035	0.112 ± 0.013	-0.007 ± 0.0042	0.0345 ± 0.023	0.0165 ± 0.032	0.003 ± 0.021	0.0185 ± 0.08	0 ± 0.0099	-0.0215 ± 0.016	0.0035 ± 0.044	-0.0075 ± 0.00071	-0.0115 ± 0.018	0.0355 ± 0.047	-0.0185 ± 0.026	-0.0065 ± 0.012	-0.0065 ± 0.019	-0.0295 ± 0.0064	-0.0295 ± 0.021	-0.0155 ± 0.019
lMphg:CD40	-0.025 ± 0.017	-0.0335 ± 0.018	-0.0105 ± 0.028	-0.021 ± 0.011	-0.004 ± 0.0042	-0.008 ± 0.013	-0.058 ± 0.02	0.0025 ± 0.005	-0.0125 ± 0.035	-0.069 ± 0.054	-0.049 ± 0.11	-0.025 ± 0.038	0.023 ± 0.068	-0.0125 ± 0.0035	0.0065 ± 0.028	-0.0055 ± 0.036	-0.029 ± 0.0057	-0.0435 ± 0.025	-0.0135 ± 0.0078
lMphg:CD62E/E-Selectin	0.0935 ± 0.0078	0.14 ± 0.0099	0.0085 ± 0.019	0.0025 ± 0.013	-0.021 ± 0.067	-0.0215 ± 0.018	-0.028 ± 0.0028	0.0195 ± 0.023	0.0085 ± 0.015	0.013 ± 0.03	0.0155 ± 0.036	0.027 ± 0.041	0.0175 ± 0.023	0.0105 ± 0.0021	0.003 ± 0.017	0.061	-0.0545 ± 0.011	0.0005 ± 0.043	-0.005 ± 0.048
lMphg:CD69	-0.0715 ± 0.012	-0.129 ± 0.0099	-0.0115 ± 0.054	-0.0375 ± 0.069	-0.0365 ± 0.083	-0.063 ± 0.072	-0.0405 ± 0.066	-0.039 ± 0.0099	-0.0475 ± 0.019	-0.0265 ± 0.00071	0.0505 ± 0.066	0.0455 ± 0.0021	0.087 ± 0.1	0.0255 ± 0.069	0.0085 ± 0.033	0.058 ± 0.0085	-0.0205 ± 0.0078	-0.017 ± 0.0028	-0.0115 ± 0.011
lMphg:CD106/VCAM-1	-0.037 ± 0.03	-0.0435 ± 0.035	0.005	-0.0115 ± 0.022	0.005	-0.004 ± 0.0042	-0.017 ± 0.011	-0.005 ± 0.0014	-0.003 ± 0.014	-0.0165 ± 0.005	-0.0165 ± 0.025	-0.007 ± 0.034	-0.0085 ± 0.022	-0.004 ± 0.02	0.007 ± 0.014	-0.004 ± 0.04	-0.016 ± 0.0028	-0.0155 ± 0.013	-0.009 ± 0.027
lMphg:CXCL8/IL-8	-0.047 ± 0.048	-0.032 ± 0.016	0.0165 ± 0.035	0.052 ± 0.023	0.005 ± 0.0057	-0.01 ± 0.0099	0.0495 ± 0.025	0.008 ± 0.031	0.018 ± 0.025	0.01 ± 0.013	-0.022 ± 0.014	-0.017 ± 0.0028	0.0165 ± 0.04	0.026 ± 0.017	0.068 ± 0.051	0.167 ± 0.074	-0.0115 ± 0.056	-0.0125 ± 0.018	0.01 ± 0.013
lMphg:IL-1alpha	-0.018 ± 0.054	-0.0235 ± 0.018	-0.038 ± 0.042	0.034 ± 0.085	0.031 ± 0.021	-0.01 ± 0.018	0.0305 ± 0.016	-0.005 ± 0.016	-0.0045 ± 0.013	0.0045 ± 0.0092	0.002 ± 0.041	0.022 ± 0.079	0.0365 ± 0.076	-0.0025 ± 0.046	0.007 ± 0.035	-0.005 ± 0.027	0.0025 ± 0.022	0.019 ± 0.0085	0.017 ± 0.028
lMphg:M-CSF	-0.001 ± 0.0057	0.0105 ± 0.0035	-0.0215 ± 0.021	-0.005 ± 0.02	-0.043 ± 0.03	-0.0355 ± 0.012	-0.007 ± 0.013	-0.024 ± 0.033	-0.0185 ± 0.005	-0.0245 ± 0.0021	-0.023 ± 0.024	-0.0005 ± 0.011	0.024 ± 0.031	-0.011 ± 0.016	0.003 ± 0.013	-0.0345 ± 0.029	-0.0245 ± 0.0021	-0.0245 ± 0.013	-0.0205 ± 0.037
lMphg:SRB	-0.0215 ± 0.0078	-0.0435 ± 0.022	-0.007 ± 0.014	-0.0045 ± 0.0078	0.006 ± 0.013	-0.011 ± 0.0014	-0.001 ± 0.0057	-0.008 ± 0.0085	0.001 ± 0.0042	-0.002 ± 0.0099	-0.012 ± 0.017	-0.0235 ± 0.037	0.002 ± 0.031	-0.0015 ± 0.0092	0.0025 ± 0.011	-0.002 ± 0.016	-0.014 ± 0.017	-0.0125 ± 0.0021	-0.0085 ± 0.0064
lMphg:SRB-Mphg	0.0095 ± 0.00071	0.001 ± 0.021	0.0005 ± 0.0092	0.0075 ± 0.0021	0.004 ± 0.0028	-0.0015 ± 0.0035	0.009 ± 0.013	-0.0055 ± 0.005	-0.007 ± 0.0042	0.0055 ± 0.032	-0.059 ± 0.054	-0.0275 ± 0.18	0.0175 ± 0.17	-0.053 ± 0.0014	-0.079 ± 0.13	-0.076 ± 0.19	-0.0055 ± 0.0064	-0.0255 ± 0.011	-0.0015 ± 0.0021
lMphg:sIL-10	0 ± 0.024	-0.0505 ± 0.028	-0.005 ± 0.028	-0.04 ± 0.013	0.003 ± 0.033	0.01 ± 0.017	-0.114 ± 0.062	-0.067 ± 0.14	-0.002 ± 0.082	-0.022 ± 0.04	0.034 ± 0.013	-0.005 ± 0.03	-0.02 ± 0.037	-0.0215 ± 0.0035	0.0045 ± 0.012	-0.108 ± 0.044	-0.032 ± 0.02	-0.143 ± 0.041	-0.0345 ± 0.032
